Patent US12286439B2, “Inhibitors of ERK nuclear translocation” (Yeda Research and Development Co. Ltd., priority 2018, dated 2025)
“Also recorded” adds a separate entry of the source.

Key:
LOX-IMVI melanoma cells = test: Dose-response analysis (IC50), LOX-IMVI cells; assay type: cell-based; details: Homo sapiens
Procedure: (§1) FIG. 15A presents dose response curves of compounds C17, D3, D11 and D14 on 8 cancer cells. Five melanoma cell lines (A2185, A2352, A2024, A2058 and LOX-IMVI), HeLa, HCT-116 and PC3 cells were grown in 1% FCS media containing either DMSO (0.1%), EPE peptide (10 μM), or Compounds C17, D3, D11, D14 at the indicated concentrations, for 72 hours. Viable cells were quantified by staining with methylene blue. Data presented as percentage of DMSO control ±SE of triplicates. […] IC50 values were calculated by interpolation in the curves in FIG. 15A. […] Bar graphs represent average viability respect to DMSO control ±SE of triplicates.
(§2) Cell Viability (IC50) Assay:
(§3) Cells were seeded at a density of 4000 cells per well into 96-well plates in complete medium. After 24 hours, medium was replaced by 1% FCS (fetal calf serum) containing appropriate treatments. Fresh medium containing the same agents was replaced every day. After 96 hours, cell viability was assessed using the CellTiter-Glo reagent (Promega; Madison, WI). IC50 values were determined using GraphPad Prism.

[1] = test system: anti-tubercular activity (unknown mechanism); details: Ananthan et al., Tuberculosis (Edinb) 2009; cited from earlier work
PC3 cells = test: Dose-response analysis, PC3 cells; assay type: cell-based; details: dose response, 72 hours
Procedure: as §1, §2, §3

A2185 and A2352 cells = test: Viability assay (methylene blue), two BRAF melanoma cells; assay type: cell-based; details: for cytotoxicity at 1 µM: both melanoma cell lines, read-out: reduction of viability
Procedure: FIGS. 10A, 10B and 10C present data from screening the 20 analogs of Compound Z2 (“C-compounds”) showing three particularly active anti-proliferative compounds. […] A2185 and A2352 cells were grown in 1% FCS containing DMSO (0.1%), EPE peptide, Compound Z56, Compound Z2 or C-compounds (10 μM), for 72 hours. Compounds were categorized according to activity: (1) active, below 40%; (2) moderate activity, below 80%; (3) not active, above 80%. […] A2185 and A2352 cells were grown in 1% FCS containing DMSO (0.1%), EPE peptide (10 μM), compounds Z56, Z2 or selected C-compounds (3 μM), for 72 hours. Empty squares/circles represent individual data points of proliferation. Full squares/circles indicate average proliferation of 2 independent experiments in triplicate±SE. Bold horizontal line defines arbitrary activity threshold of activity below 40%. FIG. 10C presents dose response curves of active C-compounds compounds. A2185 and A2352 were grown in 1% FCS media containing DMSO (0.1%), EPE peptide, Z56, Z2 (10 μM) or compounds C17, C22 and C23 (0.1-10 μM), for 72 hours. […] Cell viability was measured by staining with methylene blue. Data presented as percentage of DMSO control. Bar graphs represent average of 2 independent experiments done in triplicates ±SE.
FIG. 13 presents a graph showing the effect of analogs of Compound C17 (“D-compounds”) on cell viability at a concentration of 10 μM. A2185 and A2352 cells were grown in 1% FCS media containing DMSO (0.1%) EPE peptide (10 μM), Compounds Z56, Z2, C17 (10 μM) as controls, and D-Compounds (10 μM), for 72 hours. Viable cells were measured by staining with methylene blue. Bar graphs represent average of 2 independent experiments done in triplicates. Data presented as percentage of DMSO proliferation ±standard error.
FIG. 14 presents a graph showing the effect of analogs of Compound C17 (“D-compounds”) on cell viability at a concentration of 1 μM. A2185 and A2352 cells were grown in 1% FCS media containing DMSO (0.1%), EPE peptide (10 μM), Compounds Z56, Z2 and C17 (1 and 10 μM) as controls, and D-compounds (1 μM), for 72 hours. Viable cells were measured by staining with methylene blue. Bar graphs represent average of 2 independent experiments done in triplicates. Data presented as percentage of DMSO proliferation ±standard error.
Cells were seeded at low confluence into 24, 48 or 96-well plates in complete medium. After 24 hours, medium was replaced by 1% FCS (fetal calf serum) containing appropriate treatments. Fresh medium containing the same agents was replaced every day. After 72 or 96 hours of treatment, cells were fixed with 4% formaldehyde overnight at 23° C., washed once with 0.1 M borate buffer (pH 8.5) for 10 minutes, and stained with of 1% methylene blue in 0.1 M borate buffer (pH 8.5) for 30 minutes. Excess stain was washed out with distilled water. Color was extracted by adding 0.1 M HCl (3 hours, 23° C.), and absorbance measured at 595 nm in an ELISA reader. For time course experiments, attached cells were fixed and measured at 0, 24, 48, 72 and 96 hours. For dose-response experiments, cells were treated with indicated concentrations of reagent, fixed and stained after 72 hours as above.
The ability of the selected compounds to reduce cell viability of two BRAF melanoma cells (A2185 and A2352) was evaluated. Initially, all compounds were assayed at a relatively high concentration of 10 μM.

[2] = test system: melanoma cells (A2185, A2352, A2024, A2058 and LOX-IMVI); test: Dose-response analysis (IC50 assay), melanoma cells; assay type: cell-based; details: calculated by interpolation in the dose response curves
Procedure: as §1, §2, §3

mammalian cells = details: Ananthan et al., Tuberculosis (Edinb) 2009; cited from earlier work
[3] = test system: ERK1/2 nuclear translocation; test: Determination of ERK1/2 localization by fluorescence microscopy after TPA stimulation; assay type: cell-based; details: for inhibition of stimulated ERK1/2 nuclear translocation: 1 μM, 2 h
Procedure: Determination of Protein Localization by Fluorescence Microscopy:
Indicated cells were seeded on coverslips (coated with 0.001% w/v poly-L-lysine or not, depending on the cell line) at 50% confluency. After the indicated treatment, cells were fixed in 4% paraformaldehyde/PBS for 20 minutes on an ice surface, permeabilized with 0.1% Triton X-100/PBS for 5 minutes at 23° C., then blocked in 2% BSA/PBS for 30 minutes at 23° C. The fixed cells were sequentially incubated with appropriate antibodies (in 2% BSA/PBS, 1.5 hour), washed 3 times with PBS^−/−, and followed by incubation with either Cy-2-conjugated or rhodamine-conjugated secondary antibodies (1:200) and with DAPI ([…]; 1:100) in 2% BSA/PBS for 45 minutes. Slides were analyzed and photographed by a fluorescence microscope (Olympus BX51, ×40). Background correction, and contrast adjustment of raw data images were performed using Photoshop (Adobe, CA, USA).
The effect of Z56 was compared with that of the inhibitory effect of EPE peptide on nuclear translocation of ERK1/2.
The effects of the compounds on ERK1/2 nuclear translocation were evaluated in three cell lines (HeLa cells and two melanoma cell lines, A2185 and A2352), by treating the cells with each compound for two hours, and determining nuclear translocation using fluorescent anti-ERK antibodies, according to procedures described hereinabove.

[4] = test system: A2185, A2352, A2024, A2058, LOX-IMVI, HeLa, HCT-116 and PC3 cells; test: Dose-response analysis (IC50 assay) in eight cancer cell lines; assay type: cell-based; details: for potency in reducing cell viability relative to Compound D14 / potency in reducing cell viability relative to Compound C17: 72 hours; for potency in reducing cell viability relative to Compound D14: in seven of the eight cell lines; for potency in reducing cell viability relative to Compound C17: in six of the eight tested cell lines
Procedure: as §1
Cell Viability (IC50) Assay: […]

A2058 cells = test: Dose-response analysis, A2058 cells; assay type: cell-based; details: dose response, 72 hours
Procedure: as §1, §2, §3

[5] = TPA 100 nM, 15 minutes, A2185 cells

Q: What does the source list for `O=S1(=O)C=CC2ON=C(c3ccc(C(F)(F)F)cc3)C21` (centres unmarked) [Compound C17]?
A: IC50 (LOX-IMVI melanoma cells): ~0.02 µM; anti-tubercular activity in high-throughput screening [1]: hit; viability of PC3 cells (PC3 cells): significantly decreased; cell viability at lower concentration (A2185 and A2352 cells; 3 μM, 72 hours, 1% FCS): consistently strong anti-viability effect; viability at 10 µM (A2185 and A2352 cells; 10 μM, 72 hours, 1% FCS, active below 40%, moderate below 80%, not active above 80%, read-out: cell viability (percentage of DMSO control)): < 40%; cell viability, dose response (A2185 and A2352 cells; 0.1-10 μM, 72 hours, 1% FCS): dose dependent manner; also recorded: as potent in reducing the viability of A2352 cells; activity in SAR summary of FIGS. 10A-10C (cell viability) (A2185 and A2352 cells; comparison with Compound Z2 or named analog): surprisingly superior to the ester group of Compound Z2; concentration at which activity is already exhibited (A2185 and A2352 cells; dose response 0.1-10 μM, 72 hours): 0.3 µM; IC50 (A2185 and A2352 cells; potency summarised from viability results of Example 6): ~1 µM; IC50 [2]: 0.4 to 1.3 µM; cytotoxic activity in mammalian cells (mammalian cells): without presenting cytotoxic activity; relative potency in blocking nuclear accumulation of ERK1/2 ([3]; 10 μM, 2 hours, A2185 cells): more potent than Compounds C22 and C23; nuclear accumulation of ERK1/2 upon TPA stimulation ([3]; 10 μM, 2 hours, TPA 100 nM, 15 minutes, A2185 and A2352 cells): inhibited

Q: Which results are given for `O=S1(=O)C=CC2ON=C(c3cc(Cl)cc(Cl)c3)C21` (centres unmarked) [Compound D3]?
A: viability of PC3 cells (PC3 cells): did not; cytotoxicity at 1 µM (A2185 and A2352 cells; 72 hours, 1% FCS): ≤ 90%; potency in reducing cell viability relative to Compound D14 [4]: slightly more potency than Compound D14; potency in reducing cell viability relative to Compound C17 [4]: significantly more potency than Compound C17; selectivity (pattern of effect across cell types compared with EPE peptide) ([4]; eight cancer cell lines): more selective than Compounds C17 and D14; IC50 [2]: 0.04 to 0.25 µM; reducing the viability of A2058 cells (A2058 cells): strong effect; inhibition of stimulated ERK1/2 nuclear translocation [3, 5]: convincing activity; also recorded: most potent of the three tested compounds

Q: With `O=S1(=O)C=CC2ON=C(c3ccc(Cl)c(Cl)c3)C21` (centres unmarked) [Compound D11] as the molecule, how does the “viability of PC3 cells” value (PC3 cells) read?
A: did not

Q: And the cytotoxicity at 1 µM (A2185 and A2352 cells; 72 hours, 1% FCS)?
A: ≤ 90%

Q: And the “potency in reducing cell viability relative to Compound D14” value [4]?
A: slightly more potency than Compound D14

Q: What about the “potency in reducing cell viability relative to Compound C17” value [4] of the same molecule?
A: significantly more potency than Compound C17

Q: And the “selectivity (pattern of effect across cell types compared with EPE peptide)” value ([4]; eight cancer cell lines)?
A: more selective than Compounds C17 and D14

Q: What about the IC50 [2] of the same molecule?
A: 0.04 to 0.25 µM

Q: And the “reducing the viability of A2058 cells” value (A2058 cells)?
A: strong effect

Q: And the “inhibition of stimulated ERK1/2 nuclear translocation” value [3, 5]?
A: convincing activity

Q: What does the source list for `O=S1(=O)C=CC2ON=C(c3c[nH]c4ccccc34)C21` (centres unmarked) [Compound D14]?
A: viability of PC3 cells (PC3 cells): significantly decreased; cytotoxicity at 1 µM (A2185 and A2352 cells; 72 hours, 1% FCS): ≤ 90%; potency in reducing cell viability relative to Compound C17 [4]: significantly more potency than Compound C17; IC50 values compared to Compound C17 ([4]; eight cancer cell lines): significantly lower IC50 values compared to Compound C17; selectivity (pattern of effect across cell types compared with EPE peptide) ([4]; eight cancer cell lines): less selective; inhibition of stimulated ERK1/2 nuclear translocation [3, 5]: convincing activity
